Results: patent US11873287B2, “Piperidine-2,6-dione derivatives and ulcerative colitis treating” (TIANJIN HEMAY PHARMACEUTICAL SCI-TECH CO., LTD, priority 2016, dated 2024)

Tests used:
ICR mice = assay: Acute toxicity experiment of single oral administration in mice; type: in vivo; conditions: 1000 mg/Kg single oral dose
Procedure: The mice were fasted one day before the experiment. On the day of the experiment, 6 mice (ICR mice, body weight of 19-21 g, three females and three males) were selected in each experiment group. First of all, one female and one male were selected to orally give 1000 mg/Kg, and observed for 5-10 minutes. If there were no obvious side effects, the remaining 4 animals were orally given the same dose, and observed for 10-15 minutes. If no animal died, the animals were placed in a box to balancedly feed for 7 days. The state was observed and the body weight was recorded daily.
Observation Indexes within 0-15 Minutes After Administration
Activity: restlessness, hyperactivity
Nervous system response: tremor, spasm, convulsion, ataxia, posture abnormality, etc.
Autonomic nerve: exophthalmos, salivation, tears, urination (hematuria), diarrhea, piloerection, breathing, etc.
Observation Indexes Over 7 Days
State of Animal: lethargy, hyperactivity, excitement, hair loss, diarrhea, abnormal behavior, death, etc.

[1] = tested on: DSS-Induced inflammatory Bowel Disease Models in Mice; assay: DSS-induced inflammatory bowel disease model in mice (Biological Example 3, 1.0-1.5% DSS); type: in vivo, C57BL/6 mice; conditions: 30 mg/Kg i.g. Q.D
Procedure: (§1) 40 healthy female C57BL/6 mice having weight of 16-19 g were randomly divided into 4 groups in accordance with weight. There were 10 mice in each group (see Table 6 below). The first day of the experiment was recorded as Day 0. The administration regimen and induction regimen were detailed in Table 6. The change in weight of experimental animals was recorded every day. […] Samples of animal colonic tissues were obtained to measure the length. One-way ANOVA analysis of mice weights was performed by SPSS22. Statistical analyses between groups were performed. Mann-Whitney U non-parametric test was performed on the length of colon.
(§2) Calculation Formula of Inhibitory Rate of Colonic Reduction: (Length of Colon in Administration Group−Length of Colon in Model Group)/(Length of Colon in Blank Group−Length of Colon in Model Group)

[2] = tested on: DSS-Induced inflammatory Bowel Disease Models in Mice; assay: DSS-induced inflammatory bowel disease model in mice (Biological Example 5, 1.3% DSS); type: in vivo, C57BL/6 mice; conditions: 30 mg/Kg i.g. Q.D, 1.3% DSS days 0-5; for inhibition in vivo at 30 mg/kg: Mus musculus, po, read-out: Inhibitory Rate of Colonic Reduction
Procedure: as §1
The experimental method used in the present biological example is identical to those in Biological Example 3.
One-way ANOVA analysis of mice body weights and colonic weights per length was performed by SPSS22. Statistical analyses between groups were performed.
as §2

[3] = DSS 1.0% days 0-4, 1.5% days 5-9

Row | SMILES | Daily Body Weight of Tested Female Mice (Mean ± SD) (ICR mice; Day 1) | Daily Body Weight of Tested Male Mice (Mean ± SD) (ICR mice; Day 1) | Daily Body Weight of Tested Female Mice (Mean ± SD) (ICR mice; Day 2) | Daily Body Weight of Tested Male Mice (Mean ± SD) (ICR mice; Day 2) | Daily Body Weight of Tested Female Mice (Mean ± SD) (ICR mice; Day 3) | Daily Body Weight of Tested Male Mice (Mean ± SD) (ICR mice; Day 3) | Daily Body Weight of Tested Female Mice (Mean ± SD) (ICR mice; Day 4) | Daily Body Weight of Tested Male Mice (Mean ± SD) (ICR mice; Day 4) | Daily Body Weight of Tested Female Mice (Mean ± SD) (ICR mice; Day 5) | Daily Body Weight of Tested Male Mice (Mean ± SD) (ICR mice; Day 5) | Daily Body Weight of Tested Female Mice (Mean ± SD) (ICR mice; Day 6) | Daily Body Weight of Tested Male Mice (Mean ± SD) (ICR mice; Day 6) | Daily Body Weight of Tested Female Mice (Mean ± SD) (ICR mice; Day 7) | Daily Body Weight of Tested Male Mice (Mean ± SD) (ICR mice; Day 7) | Length (cm, Mean ± SD) of colon [2] | inhibition in vivo at 30 mg/kg [2] | Summary of toxic response of tested animals in 7 Days (ICR mice; Female) | Summary of toxic response of tested animals in 7 Days (ICR mice; Male) | other results
1 | COCCN1C(=O)CCC(N2C(=O)c3cccc(F)c3C2=O)C1=O (stereo not drawn) [Example 4, 4-fluoro-2-(1-(2-methoxyethyl)-2,6-dioxopiperidin-3-yl)isoindolin-1,3-dione] | 18.4 ± 0.4 g | 17.6 ± 0.2 g | 21.8 ± 0.5 g | 22.2 ± 0.3 g | 23.2 ± 0.6 g | 23.6 ± 0.6 g | 23.5 ± 1.2 g | 24.7 ± 0.6 g | 24.7 ± 0.9 g | 26.7 ± 0.4 g | 24.2 ± 1.2 g | 27.6 ± 0.8 g | 24.0 ± 0.8 g | 28.2 ± 0.1 g | – | – | – | – | body weights compared with model control group [1]: higher than that of the model control group; Average Length of Colon (Mean ± SD) [1, 3]: 6.3 ± 0.3 cm; Inhibitory Rate of Colonic Reduction [1, 3]: 54.5%; Body Weights of Experimental Mice (Mean ± SD) ([1]; Day 0): 17.4 ± 1.3 g; Body Weights of Experimental Mice (Mean ± SD) ([1]; Day 1): 17.6 ± 1.1 g; Body Weights of Experimental Mice (Mean ± SD) ([1]; Day 2): 18.0 ± 0.9 g; Body Weights of Experimental Mice (Mean ± SD) ([1]; Day 3): 17.8 ± 1.0 g; Body Weights of Experimental Mice (Mean ± SD) ([1]; Day 4): 17.9 ± 0.9 g; Body Weights of Experimental Mice (Mean ± SD) ([1]; Day 5): 18.1 ± 1.1 g; Body Weights of Experimental Mice (Mean ± SD) ([1]; Day 6): 17.7 ± 0.9 g; Body Weights of Experimental Mice (Mean ± SD) ([1]; Day 7): 18.1 ± 0.9 g; Body Weights of Experimental Mice (Mean ± SD) ([1]; Day 8): 17.8 ± 0.8 g; Body Weights of Experimental Mice (Mean ± SD) ([1]; Day 9): 17.6 ± 0.8 g; Body Weights of Experimental Mice (Mean ± SD) ([1]; Day 10): 17.0 ± 0.7 g; Body Weights of Experimental Mice (Mean ± SD) ([1]; Day 11): 16.7 ± 0.7 g; Body Weights of Experimental Mice (Mean ± SD) ([1]; Day 12): 17.0 ± 0.9 g
2 | C[S+]([O-])CCN1C(=O)CCC(N2C(=O)c3cccc(N)c3C2=O)C1=O (stereo not drawn) [Example 12, 4-amino-2-(1-(2-methylsulfinylethyl)-2,6-dioxopiperidin-3-yl)isoindolin-1,3-dione] | 18.7 ± 0.7 g | 18.5 ± 0.2 g | 21.8 ± 0.6 g | 24.3 ± 0.6 g | 22.6 ± 0.1 g | 24.9 ± 0.1 g | 22.6 ± 0.0 g | 24.9 ± 0.1 g | 23.7 ± 0.6 g | 26.1 ± 0.7 g | 25.3 ± 1.0 g | 27.8 ± 0.7 g | 25.7 ± 1.6 g | 28.5 ± 0.7 g | 7.0 ± 0.5 cm | 109% | Abnormality was not observed in 7 days of the test | Abnormality was not observed in 7 days of the test | –
3 | CS(=O)(=O)CCN1C(=O)CCC(N2C(=O)c3cccc(N)c3C2=O)C1=O (stereo not drawn) [Example 13, 4-amino-2-(1-(2-methylsulfonylethyl)-2,6-dioxopiperidin-3-yl)isoindolin-1,3-dione] | 18.8 ± 1.1 g | 19.6 ± 0.7 g | 21.3 ± 0.3 g | 23.1 ± 0.6 g | 21.8 ± 0.4 g | 24.4 ± 0.9 g | 21.8 ± 0.4 g | 24.4 ± 0.9 g | 23.0 ± 0.5 g | 26.5 ± 0.5 g | 23.2 ± 0.9 g | 28.3 ± 1.3 g | 23.6 ± 0.9 g | 28.4 ± 0.8 g | 6.9 ± 0.4 cm | 100% | Abnormality was not observed in 7 days of the test | Abnormality was not observed in 7 days of the test | –
4 | COCCN1C(=O)CCC(C)(N2C(=O)c3cccc(N)c3C2=O)C1=O (stereo not drawn) [Example 15, 4-amino-2-(1-(2-methoxyethyl)-3-methyl-2,6-dioxopiperidin-3-yl)isoindolin-1,3-dione] | – | – | – | – | – | – | – | – | – | – | – | – | – | – | 6.6 ± 0.4 cm | 72.7% | – | – | –
5 | COCCCN1C(=O)CCC(N2C(=O)c3cccc(F)c3C2=O)C1=O (stereo not drawn) [Example 17, 4-fluoro-2-(1-(3-methoxypropyl)-2,6-dioxopiperidin-3-yl)isoindolin-1,3-dione] | 18.6 ± 1.0 g | 19.0 ± 0.7 g | 21.9 ± 0.4 g | 24.0 ± 0.7 g | 22.7 ± 0.4 g | 24.6 ± 0.8 g | 22.7 ± 0.4 g | 24.6 ± 0.8 g | 23.0 ± 0.4 g | 26.1 ± 0.7 g | 23.1 ± 1.0 g | 28.1 ± 0.6 g | 22.7 ± 1.2 g | 29.3 ± 1.0 g | 7.0 ± 0.4 cm | 109% | Motor dysfunction in one animal was observed 10 minutes after | Motor dysfunction in two animals was observed 30 minutes after | –
6 | CCOCCN1C(=O)CCC(N2C(=O)c3cccc(F)c3C2=O)C1=O (stereo not drawn) [Example 20, 4-fluoro-2-(1-(2-ethoxyethyl)-2,6-dioxopiperidin-3-yl)isoindolin-1,3-dione] | 18.7 ± 0.4 g | 18.8 ± 1.0 g | 21.6 ± 1.0 g | 24.0 ± 1.1 g | 22.1 ± 1.0 g | 25.3 ± 1.2 g | 22.1 ± 1.0 g | 25.3 ± 1.2 g | 23.0 ± 1.4 g | 26.7 ± 1.2 g | 23.3 ± 0.2 g | 29.0 ± 1.1 g | 23.7 ± 0.8 g | 29.3 ± 0.7 g | 6.9 ± 0.6 cm | 100% | Decrease of activity was observed in two animals in 10 minutes | Decrease of activity was observed in one animal 11 minutes after | –
7 | COCCN1C(=O)CCC(N2C(=O)c3ccc(F)cc3C2=O)C1=O (stereo not drawn) [Example 21, 5-fluoro-2-(1-(2-methoxyethyl)-2,6-dioxopiperidin-3-yl)-isoindolin-1,3-dione] | – | – | – | – | – | – | – | – | – | – | – | – | – | – | 6.9 ± 0.4 cm | 100% | – | – | –
8 | COCCN1C(=O)CCC(N2C(=O)c3ccc(OC)c(N)c3C2=O)C1=O (stereo not drawn) [Example 25, 4-amino-5-methoxy-2-(1-(2-methoxyethyl)-2,6-dioxopiperidin-3-yl)-isoindolin-1,3-dione] | – | – | – | – | – | – | – | – | – | – | – | – | – | – | 6.7 ± 0.5 cm | 81.8% | – | – | –
